Measured values taken from BigSolDB 2.1.

COc1ccc(C(=O)O)cc1OC
Details | solubility (mole fraction)
in 2-butanone, 278.95 K | 0.0068
in 2-butanone, 283.15 K | 0.0077
in 2-butanone, 287.95 K | 0.0089
in 2-butanone, 293.32 K | 0.0104
in 2-butanone, 298.13 K | 0.012
in 2-butanone, 303.15 K | 0.014
in 2-butanone, 308.37 K | 0.0162
in 2-butanone, 313.05 K | 0.0184
in 2-butanone, 318.15 K | 0.0212
in 2-butanone, 323.49 K | 0.0246
in ethanol, 278.15 K | 0.0035
in ethanol, 282.93 K | 0.0042
in ethanol, 288.21 K | 0.0051
in ethanol, 293.08 K | 0.0062
in ethanol, 298 K | 0.0074
in ethanol, 303.33 K | 0.0093
in ethanol, 307.9 K | 0.011
in ethanol, 313.3 K | 0.0136
in ethanol, 317.15 K | 0.0161
in ethanol, 323.3 K | 0.0203
in ethyl acetate, 278.3 K | 0.0037
in ethyl acetate, 283.01 K | 0.0044
in ethyl acetate, 288.05 K | 0.0052
in ethyl acetate, 293.15 K | 0.0061
in ethyl acetate, 298 K | 0.0072
in ethyl acetate, 303.13 K | 0.0083
in ethyl acetate, 308.07 K | 0.0099
in ethyl acetate, 313.15 K | 0.0116
in ethyl acetate, 318.06 K | 0.0133
in ethyl acetate, 323.37 K | 0.0157
in isobutanol, 277.9 K | 0.0015
in isobutanol, 283.25 K | 0.002
in isobutanol, 288.15 K | 0.0026
in isobutanol, 293.04 K | 0.0032
in isobutanol, 298.15 K | 0.0041
in isobutanol, 302.94 K | 0.0052
in isobutanol, 308.1 K | 0.0066
in isobutanol, 313.15 K | 0.0083
in isobutanol, 318.01 K | 0.0105
in isobutanol, 323.33 K | 0.0132
in isopropanol, 278.37 K | 0.0024
in isopropanol, 283.05 K | 0.003
in isopropanol, 288.39 K | 0.0039
in isopropanol, 294.07 K | 0.0051
in isopropanol, 299 K | 0.0063
in isopropanol, 303.17 K | 0.0074
in isopropanol, 308.27 K | 0.0095
in isopropanol, 313.13 K | 0.0118
in isopropanol, 318.15 K | 0.015
in isopropanol, 323.2 K | 0.0183
in methyl acetate, 278.3 K | 0.0042
in methyl acetate, 283.01 K | 0.0049
in methyl acetate, 288.05 K | 0.0058
in methyl acetate, 293.15 K | 0.0068
in methyl acetate, 298 K | 0.008
in methyl acetate, 303.13 K | 0.0095
in methyl acetate, 308.07 K | 0.0111
in methyl acetate, 313.15 K | 0.0131
in methyl acetate, 318.06 K | 0.0152
in methyl acetate, 323.37 K | 0.0177
in n-butanol, 277.9 K | 0.0025
in n-butanol, 283.25 K | 0.003
in n-butanol, 288.15 K | 0.0037
in n-butanol, 293.04 K | 0.0046
in n-butanol, 298.15 K | 0.0057
in n-butanol, 302.94 K | 0.007
in n-butanol, 308.1 K | 0.0089
in n-butanol, 313.15 K | 0.011
in n-butanol, 318.01 K | 0.0134
in n-butanol, 323.33 K | 0.0168
in n-propanol, 278.37 K | 0.0027
in n-propanol, 283.05 K | 0.0033
in n-propanol, 288.39 K | 0.0042
in n-propanol, 293.3 K | 0.0051
in n-propanol, 299 K | 0.0066
in n-propanol, 303.17 K | 0.0079
in n-propanol, 308.27 K | 0.0097
in n-propanol, 313.13 K | 0.0118
in n-propanol, 318.15 K | 0.0146
in n-propanol, 323.2 K | 0.0177

O=C(O)c1cc(O)c(O)c(O)c1
in water
Details | solubility (mole fraction)
292.18 K | 0.00098
298 K | 0.0011
303.09 K | 0.00142
308.21 K | 0.0019
313.04 K | 0.00244
318.15 K | 0.00328
323.15 K | 0.00427
327.85 K | 0.00523
333.15 K | 0.00693
